# Data taken from patent publication US6297043A, “Mumbaistatin, a process for it's production and its use as a pharmaceutical” (Aventis Pharma Deutschland GmbH, priority 1998, dated 2001).
# Legend:
# [1] = test system: phosphate/pyrophosphate translocase; experiment: effect on activity of phosphate/pyrophosphate translocase; format: biochemical
# [2] = test system: glucagon-induced glycogenolysis; experiment: glucose output of isolated rat hepatocytes: glucagon-induced glycogenolysis; format: cell-based
# Description: (§1) Mumbaistatin was further evaluated in isolated rat hepatocytes for its effect on glucose output. It inhibits both fructose-induced gluconeogenesis and glucagon-induced glycogenolysis with IC50 values of about 0.3 μM and 0.6 μM, respectively.
# [3] = test system: fructose-induced gluconeogenesis; experiment: glucose output of isolated rat hepatocytes: fructose-induced gluconeogenesis; format: cell-based
# Description: as §1
# [4] = test system: rat liver microsomal glucose-6-phosphate translocase; experiment: inhibition of rat liver microsomal glucose-6-phosphate translocase activity; format: biochemical; settings: translocase versus phosphatase activity
# From the text: (§2) If desired, DESMOPHEN® (polypropylene oxide) may be used as an antifoam agent in the fermenters. […] In the resulting culture broth, Mumbaistatin is present primarily in the culture filtrate and can thus be recovered by extraction of the culture filtrate with a water immiscible solvent such as, for example, ethyl acetate, dichloromethane, chloroform or butanol at pH 5-8, or by hydrophobic interaction chromatography using polymeric resins such as DIAION® HP-20 (Mitsubishi Chemical Industries Limited, Japan), AMBERLITE® XAD (Rohm and Haas Industries, U.S.A.), or activated charcoal, or by ion exchange chromatography at pH 5-8.
# (§3) The production of Mumbaistatin was monitored by measuring the inhibition of glucose-6-phosphate translocase.
# (§4) The production of the compound was monitored by measuring the inhibition of glucose-6-phosphate translocase.
# [5] = biological target: T1, rat liver microsomal glucose-6-phosphate translocase (Rattus norvegicus, UniProt F7EWB7); experiment: as above; format: biochemical
# T1 construct: rat liver microsomal glucose-6-phosphate translocase; from tissue; host or cells: rat liver microsomes
# T1 sequence (F7EWB7 1-429): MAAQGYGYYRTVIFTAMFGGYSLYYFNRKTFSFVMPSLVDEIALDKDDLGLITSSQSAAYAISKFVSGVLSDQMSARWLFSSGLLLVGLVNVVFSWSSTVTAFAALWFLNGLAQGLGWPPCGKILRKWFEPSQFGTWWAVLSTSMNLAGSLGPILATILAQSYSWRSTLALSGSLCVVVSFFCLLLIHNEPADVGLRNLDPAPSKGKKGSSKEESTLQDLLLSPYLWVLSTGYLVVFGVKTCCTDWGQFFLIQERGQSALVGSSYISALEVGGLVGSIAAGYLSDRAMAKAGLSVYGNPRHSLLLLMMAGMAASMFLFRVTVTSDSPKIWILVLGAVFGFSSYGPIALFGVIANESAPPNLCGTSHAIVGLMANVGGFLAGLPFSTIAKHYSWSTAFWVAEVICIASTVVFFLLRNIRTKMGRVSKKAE
# From the text: as §2, §3, §4
substance,measurement,setting,value
Mumbaistatin,effect on activity of phosphate/pyrophosphate translocase,[1],did not affect
same,IC50,[2],~600 nM
same,IC50,[3],~300 nM
same,specificity for translocase over phosphatase,[4],high degree of specificity for translocase
same,mode of inhibition of glucose-6-phosphate translocase,[5],reversible and competitive inhibitor
same,IC50,[5]; rat liver microsomal,~25 nM
same,inhibition of glucose-6-phosphate translocase,[5]; rat liver microsomal,potently inhibits
